This note sets out measurements from patent publication US20190127366A1 (LifeSci Pharmaceuticals, Inc., priority 2015, published 2019).

The target in assay [1] is T1, human complement factor D (Homo sapiens, UniProt P00746).
T1 construct: purchased R&D Systems 1824-SE
Description: In vitro enzyme inhibition (Z-Lys-SBzl/DTNB absorbance assay). The assay is classed as biochemical. The conditions noted are these: Complement Factor D (R&D Systems), substrate Z-Lys-SBzl, A405 nm; read-out: CFD IC50. The essentials:
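Factor D (6.25 ng/μL before addition) preincubated 5 min RT with compound (8 points from 50 μM, 6-fold, 0.5% DMSO final) in 50 mM Tris/HCl pH 7.5, 1 M NaCl, then Z-Lys-SBzl/DTNB added (200 μM each before addition). A405 read kinetically every 30 s for 60 min; IC50 from variable-slope fit, controls with and without enzyme.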

The subject of assay [2] is alternative pathway (AP) hemolytic activity. Description: AP hemolysis inhibition assay. Format: cell-based. The conditions noted are these: Erythrocyte, 1 h; Normal Human Serum, chicken or rabbit erythrocytes, 60 min at 37° C., OD 414 nm. The method, then:
The ability of the compounds disclosed herein to inhibit alternative pathway (AP) hemolytic activity was determined. Red blood cells (RBC), chicken or rabbit erythrocyctes (SbjBio), were washed three time using assay buffer containing 0.1% gelatin, 5 mM Veronal, 145 mM NaCl, 0.025% NaN3, 10 mM Mg-EGTA pH 7.3. In 100 μL reaction system, 1300 to 1500 ng/μL final concentration of Normal Human Serum (CompTech) was incubated with compound for 15 min at 37° C. Then 2×10^6 cells/well of chicken or rabbit erythrocytes in assay buffer were added and incubated for an additional 60 min at 37° C. Positive control (100% lysis) consists of serum and RBC, and negative control (0% lysis) consists of assay buffer and RBC only. Samples were centrifuged at 2000 g for 5 min, and supernatants collected. Optical density of the supernatant is monitored at 414 nm using Synergy 2 (BioTek). Percentage lysis in each sample is calculated relative to positive control (100% lysis).
Table 3 discloses the inhibitory activity of the compounds provided herein in the hemolysis assay.

T1 sequence (P00746 26-253): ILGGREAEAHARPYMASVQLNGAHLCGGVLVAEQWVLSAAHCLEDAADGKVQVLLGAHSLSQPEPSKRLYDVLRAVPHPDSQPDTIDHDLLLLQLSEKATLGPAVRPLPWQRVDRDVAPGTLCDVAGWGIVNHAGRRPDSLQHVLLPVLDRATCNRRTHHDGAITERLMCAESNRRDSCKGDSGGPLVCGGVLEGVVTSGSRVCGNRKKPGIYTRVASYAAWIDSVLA

Regarding `NC(=O)c1nn(CC(=O)N2[C@@H]3CC[C@@H](C3)[C@H]2C(=O)Nc2cccc(Cl)n2)c2ccccc12` [Example 1, 1-(2-((1R,3S,4S)-3-((6-chloropyridin-2-yl)carbamoyl)-2-azabicyclo[2.2.1]heptan-2-yl)-2-oxoethyl)-1H-indazole-3-carboxamide], the half-inhibitory concentration (IC50) (in general, the concentration at which inhibition is half-maximal) in assay [1] is below 100 nM. For the same molecule, in assay [2], the EC50 (in general, the concentration giving half of the maximal effect) was 100 to 1000 nM.
Regarding `NC(=O)c1nn(CC(=O)N2C3CCC(C3)[C@H]2C(=O)Nc2cccc(Cl)n2)c2ccccc12` (stereo partly drawn) [Example 10, 1-(2-((3S)-3-((6-chloropyridin-2-yl)carbamoyl)-2-azabicyclo[2.2.1]heptan-2-yl)-2-oxoethyl)-1H-indazole-3-carboxamide], the IC50 in assay [1] is below 100 nM. Besides, the EC50 in assay [2] lay within 100 to 1000 nM.
As to `NC(=O)c1nn(CC(=O)N2C3CCC(C3)[C@H]2C(=O)Nc2cccc(Cl)n2)c2ccc(C3CC3)cc12` (stereo partly drawn) [Example 11, 1-(2-((3S)-3-((6-chloropyridin-2-yl)carbamoyl)-2-azabicyclo[2.2.1]heptan-2-yl)-2-oxoethyl)-5-cyclopropyl-1H-indazole-3-carboxamide], the IC50 in assay [1] was in the range of 100 to 1000 nM. The EC50 in assay [2] lay within 1000 to 10000 nM.
In the same order, the values of `NC(=O)c1nn(CC(=O)N2[C@@H]3CC[C@@H](C3)[C@H]2C(=O)Nc2cccc(Cl)c2F)c2ccccc12` [Example 18, 1-(2-((1R,3S,4S)-3-((3-chloro-2-fluorophenyl)carbamoyl)-2-azabicyclo[2.2.1]heptan-2-yl)-2-oxoethyl)-1H-indazole-3-carboxamide] are 100 to 1000 nM and 1000 to 10000 nM.
As for `NC(=O)c1nn(CC(=O)N2CCCC[C@H]2C(=O)Nc2cccc(Cl)n2)c2ccccc12` [Example 21, (S)-1-(2-(2-((6-chloropyridin-2-yl)carbamoyl)piperidin-1-yl)-2-oxoethyl)-1H-indazole-3-carboxamide], the IC50 in assay [1] is 100 to 1000 nM. Also, the concentration for a half-maximal effect (EC50) in assay [2] fell in the range of 1000 to 10000 nM.
Turning to `NC(=O)c1nn(CC(=O)N2[C@@H]3CC[C@@H](C3)[C@H]2C(=O)NCc2cccc(Cl)c2F)c2ccccc12` [Example 38, 1-(2-((1R,3S,4S)-3-((3-chloro-2-fluorobenzyl)carbamoyl)-2-azabicyclo[2.2.1]heptan-2-yl)-2-oxoethyl)-1H-indazole-3-carboxamide], the IC50 in assay [1] fell in the range of 100 to 1000 nM. Also, the concentration for a half-maximal effect (EC50) in assay [2] lay within 1000 to 10000 nM.
Consider `NC(=O)c1nn(CC(=O)N2[C@@H]3CC[C@@H](C3)[C@H]2C(=O)Nc2cccc(Cl)n2)c2ccc(C3CC3)cc12` [Example 56, 1-(2-((1R,3S,4S)-3-((6-chloropyridin-2-yl)carbamoyl)-2-azabicyclo[2.2.1]heptan-2-yl)-2-oxoethyl)-5-cyclopropyl-1H-indazole-3-carboxamide 2,2,2-trifluoroacetate], for which the concentration for half-maximal inhibition (IC50) in assay [1] was in the range of 100 to 1000 nM. Further, the EC50 in assay [2] lay within 100 to 1000 nM.
For the molecule `NC(=O)c1nn(CC(=O)N2[C@@H]3CC[C@@H](C3)[C@H]2C(=O)Nc2cncc(Cl)n2)c2ccccc12` [Example 59, 1-(2-((1R,3S,4S)-3-((6-chloropyrazin-2-yl)carbamoyl)-2-azabicyclo[2.2.1]heptan-2-yl)-2-oxoethyl)-1H-indazole-3-carboxamide], the IC50 in assay [1] was below 100 nM. The 50% effective concentration (EC50) in assay [2] is 100 to 1000 nM.
`NC(=O)c1nn(CC(=O)N2[C@@H]3CC[C@@H](C3)[C@H]2C(=O)Nc2cccc(Br)n2)c2ccccc12` [Example 65, 1-(2-((1R,3S,4S)-3-((6-bromopyridin-2-yl)carbamoyl)-2-azabicyclo[2.2.1]heptan-2-yl)-2-oxoethyl)-1H-indazole-3-carboxamide]: the IC50 in assay [1] was below 100 nM. For the same molecule, the concentration for a half-maximal effect (EC50) in assay [2] fell in the range of 100 to 1000 nM.
In the case of `CC(=O)c1nn(CC(=O)N2[C@@H]3CC[C@@H](C3)[C@H]2C(=O)Nc2cccc(Cl)n2)c2cnccc12` [Example 66, (1R,3S,4S)-2-(2-(3-acetyl-1H-pyrazolo[3,4-c]pyridin-1-yl)acetyl)-N-(6-chloropyridin-2-yl)-2-azabicyclo[2.2.1]heptane-3-carboxamide], the IC50 in assay [1] was in the range of 100 to 1000 nM. In addition, the half-maximal effective concentration (EC50) in assay [2] lay within 100 to 1000 nM.
Consider `NC(=O)c1nn(CC(=O)N2[C@@H]3CC[C@@H](C3)[C@H]2C(=O)Nc2cccc(Cl)n2)c2cc(F)ccc12` [Example 71, 1-(2-((1R,3S,4S)-3-((6-chloropyridin-2-yl)carbamoyl)-2-azabicyclo[2.2.1]heptan-2-yl)-2-oxoethyl)-6-fluoro-1H-indazole-3-carboxamide], for which the IC50 in assay [1] is below 100 nM. Further, the concentration giving a half-maximal response (EC50) in assay [2] is 100 to 1000 nM.
The like results for `Cc1cc(Cl)nc(NC(=O)[C@@H]2[C@H]3CC[C@H](C3)N2C(=O)Cn2nc(C(N)=O)c3ccccc32)c1` [Example 77, 1-(2-((1R,3S,4S)-3-((6-chloro-4-methylpyridin-2-yl)carbamoyl)-2-azabicyclo[2.2.1]heptan-2-yl)-2-oxoethyl)-1H-indazole-3-carboxamide] were, in that order, 100 to 1000 nM and 100 to 1000 nM.
Take `CC(=O)c1nn(CC(=O)N2[C@@H]3CC[C@@H](C3)[C@H]2C(=O)Nc2cccc(Cl)n2)c2ccccc12` [Example 80, (1R,3S,4S)-2-(2-(3-acetyl-1H-indazol-1-yl)acetyl)-N-(6-chloropyridin-2-yl)-2-azabicyclo[2.2.1]heptane-3-carboxamide]: the IC50 in assay [1] is below 100 nM. Also, the concentration for a half-maximal effect (EC50) in assay [2] was in the range of 100 to 1000 nM.
The like results for `NC(=O)c1nn(CC(=O)N2[C@@H]3CC[C@@H](C3)[C@H]2C(=O)Nc2cccc(Cl)n2)c2cc(N)ccc12` [Example 93, 6-amino-1-(2-((1R,3S,4S)-3-((6-chloropyridin-2-yl)carbamoyl)-2-azabicyclo[2.2.1]heptan-2-yl)-2-oxoethyl)-1H-indazole-3-carboxamide 2,2,2-trifluoroacetate] were, in that order, 100 to 1000 nM and 100 to 1000 nM.
Regarding `CC(=O)c1nn(CC(=O)N2[C@H](C(=O)Nc3cccc(Cl)n3)C[C@@H]3CCC[C@@H]32)c2ccc(F)cc12` [Example 183, (2S,3aS,6aS)-1-(2-(3-acetyl-5-fluoro-1H-indazol-1-yl)acetyl)-N-(6-chloropyridin-2-yl)octahydrocyclopenta[b]pyrrole-2-carboxamide], in assay [1], the half-inhibitory concentration (IC50) lay within 1000 to 10000 nM.
For `NC(=O)n1cc(CC(=O)N2CC[C@H]2C(=O)NCc2cccc(Cl)c2F)c2ccccc21` [Example 186, (S)-3-(2-(2-((3-chloro-2-fluorobenzyl)carbamoyl)azetidin-1-yl)-2-oxoethyl)-1H-indole-1-carboxamide], the IC50 in assay [1] was 100 to 1000 nM.
With `NC(=O)c1nn(CC(=O)N2CC[C@H]2C(=O)NCc2cccc(Cl)c2F)cc1Br` [Example 187, (S)-4-bromo-1-(2-(2-((3-chloro-2-fluorobenzyl)carbamoyl)azetidin-1-yl)-2-oxoethyl)-1H-pyrazole-3-carboxamide], the half-inhibitory concentration (IC50) in assay [1] lay in the range of 1000 to 10000 nM.
The same measure, in the same setting: for `NC(=O)c1nc(CC(=O)N2CC[C@H]2C(=O)NCc2cccc(Cl)c2F)n2ccccc12` [Example 191, (S)-3-(2-(2-((3-chloro-2-fluorobenzyl)carbamoyl)azetidin-1-yl)-2-oxoethyl)imidazo[1,5-a]pyridine-1-carboxamide] the value was 100 to 1000 nM.
As for `CC(=O)c1nc(CC(=O)N2CC[C@H]2C(=O)NCc2cccc(Cl)c2F)n2ccccc12` [Example 192, (S)-1-(2-(1-acetylimidazo[1,5-a]pyridin-3-yl)acetyl)-N-(3-chloro-2-fluorobenzyl)azetidine-2-carboxamide], in assay [1], the half-maximal inhibitory concentration (IC50) is 1000 to 10000 nM.
Consider `CC(O)c1nn(CC(=O)N2CC[C@H]2C(=O)NCc2cccc(Cl)c2F)c2ccccc12` (stereo partly drawn) [Example 193, (2S)-N-(3-chloro-2-fluorobenzyl)-1-(2-(3-(1-hydroxyethyl)-1H-indazol-1-yl)acetyl)azetidine-2-carboxamide], for which, in assay [1], the IC50 was in the range of 1000 to 10000 nM.
Turning to `NC(=O)c1nn(CC(=O)N2[C@H](CO)C[C@H]2C(=O)NCc2cccc(Cl)c2F)c2ccccc12` [Example 197, 1-(2-(trans-2-((3-chloro-2-fluorobenzyl)carbamoyl)-4-(hydroxymethyl)azetidin-1-yl)-2-oxoethyl)-1H-indazole-3-carboxamide], the IC50 in assay [1] lay within 1000 to 10000 nM.
As for `NC(=O)c1nn(CC(=O)N2[C@@H]3CC[C@@H](C3)[C@H]2C(=O)NCc2cc3c(Cl)c[nH]c3cc2F)c2ccccc12` [Example 198, 1-(2-((1R,3S,4S)-3-(((3-chloro-6-fluoro-1H-indol-5-yl)methyl)carbamoyl)-2-azabicyclo[2.2.1]heptan-2-yl)-2-oxoethyl)-1H-indazole-3-carboxamide], in assay [1], the IC50 was above 10000 nM.
On to `NC(=O)c1nn(CC(=O)N2[C@H](C(=O)NCc3cccc(Cl)c3F)C[C@@H]3CCC[C@@H]32)c2ccc(C3CC3)cc12` [Example 199, 1-(2-((2S,3aS,6aS)-2-((3-chloro-2-fluorobenzyl)carbamoyl)hexahydrocyclopenta[b]pyrrol-1(2H)-yl)-2-oxoethyl)-5-cyclopropyl-1H-indazole-3-carboxamide], for which, in assay [1], the IC50 was 100 to 1000 nM.
